Reference: the supplement of paper PMC12076712

How the values were obtained:
Assay in all cases: pIC50, kinobeads binding competition
[1] = target: T1, UniProt Q99759
T1 sequence (whole entry): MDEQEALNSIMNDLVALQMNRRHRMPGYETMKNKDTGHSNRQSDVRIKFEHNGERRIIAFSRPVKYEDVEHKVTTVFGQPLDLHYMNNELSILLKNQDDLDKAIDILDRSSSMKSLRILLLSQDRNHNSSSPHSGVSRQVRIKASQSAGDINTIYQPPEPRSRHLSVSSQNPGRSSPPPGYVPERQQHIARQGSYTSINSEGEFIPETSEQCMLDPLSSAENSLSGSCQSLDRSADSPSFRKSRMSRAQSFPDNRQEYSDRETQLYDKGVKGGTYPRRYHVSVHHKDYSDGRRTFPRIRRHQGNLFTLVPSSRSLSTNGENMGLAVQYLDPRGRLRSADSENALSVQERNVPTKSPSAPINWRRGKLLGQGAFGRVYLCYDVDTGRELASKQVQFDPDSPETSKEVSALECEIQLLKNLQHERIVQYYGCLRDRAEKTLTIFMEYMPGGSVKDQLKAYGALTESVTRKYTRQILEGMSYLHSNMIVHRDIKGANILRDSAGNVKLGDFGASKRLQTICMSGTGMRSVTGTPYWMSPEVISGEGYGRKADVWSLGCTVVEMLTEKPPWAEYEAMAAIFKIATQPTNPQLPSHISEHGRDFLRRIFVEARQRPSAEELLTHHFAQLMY
In short: (§1)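 pIC50 was obtained by fitting fold changes against vehicle to logistic dose-response curves with the R drc package, using biological duplicates. Kinobeads-bound proteins were digested and measured by TMT10 LC-MS/MS. Before this, either living Jurkat cells received nine compound concentrations (top 30 μM, 1:4 steps) for 60 min at 37 °C prior to lysis, or Jurkat lysate or a 1:1:1:1 HEK293/K-562/HepG2/placenta lysate mix received nine concentrations (top 30 μM, 1:5 steps) for 60 min at 4 °C.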

[2] = target: T2, PRKX (UniProt P51817)
T2 sequence (whole entry): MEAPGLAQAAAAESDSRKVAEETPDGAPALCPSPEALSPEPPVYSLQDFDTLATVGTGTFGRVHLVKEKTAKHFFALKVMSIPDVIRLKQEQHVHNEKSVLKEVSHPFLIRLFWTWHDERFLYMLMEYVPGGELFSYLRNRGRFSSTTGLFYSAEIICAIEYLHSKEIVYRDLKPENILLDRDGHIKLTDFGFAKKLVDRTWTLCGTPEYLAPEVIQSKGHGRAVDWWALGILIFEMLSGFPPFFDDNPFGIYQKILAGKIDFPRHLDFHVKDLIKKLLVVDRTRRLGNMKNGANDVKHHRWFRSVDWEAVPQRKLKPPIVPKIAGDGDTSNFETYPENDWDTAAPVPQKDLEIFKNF
In short: as §1

[3] = target: UniProt O94804
In short: as §1

[4] = target: T3, SGK3 (UniProt Q96BR1)
T3 sequence (whole entry): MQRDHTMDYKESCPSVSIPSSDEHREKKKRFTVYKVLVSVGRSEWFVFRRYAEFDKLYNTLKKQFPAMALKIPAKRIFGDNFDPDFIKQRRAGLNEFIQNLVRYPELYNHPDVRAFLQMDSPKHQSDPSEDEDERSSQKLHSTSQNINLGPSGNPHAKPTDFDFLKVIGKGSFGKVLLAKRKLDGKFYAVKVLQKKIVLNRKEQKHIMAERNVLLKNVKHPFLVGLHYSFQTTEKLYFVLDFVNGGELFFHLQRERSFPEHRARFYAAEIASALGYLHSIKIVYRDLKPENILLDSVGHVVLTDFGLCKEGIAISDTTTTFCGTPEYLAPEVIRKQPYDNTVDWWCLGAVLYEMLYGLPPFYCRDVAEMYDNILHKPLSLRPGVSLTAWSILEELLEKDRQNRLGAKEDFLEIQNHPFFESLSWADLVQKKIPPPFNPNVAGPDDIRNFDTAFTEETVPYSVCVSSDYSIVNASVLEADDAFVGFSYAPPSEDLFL
In short: as §1

[5] = target: EGFR (UniProt P00533); conditions: cell material: Lysate mix
In short: as §1

[6] = target: T4, ULK1 (UniProt O75385)
T4 sequence (whole entry): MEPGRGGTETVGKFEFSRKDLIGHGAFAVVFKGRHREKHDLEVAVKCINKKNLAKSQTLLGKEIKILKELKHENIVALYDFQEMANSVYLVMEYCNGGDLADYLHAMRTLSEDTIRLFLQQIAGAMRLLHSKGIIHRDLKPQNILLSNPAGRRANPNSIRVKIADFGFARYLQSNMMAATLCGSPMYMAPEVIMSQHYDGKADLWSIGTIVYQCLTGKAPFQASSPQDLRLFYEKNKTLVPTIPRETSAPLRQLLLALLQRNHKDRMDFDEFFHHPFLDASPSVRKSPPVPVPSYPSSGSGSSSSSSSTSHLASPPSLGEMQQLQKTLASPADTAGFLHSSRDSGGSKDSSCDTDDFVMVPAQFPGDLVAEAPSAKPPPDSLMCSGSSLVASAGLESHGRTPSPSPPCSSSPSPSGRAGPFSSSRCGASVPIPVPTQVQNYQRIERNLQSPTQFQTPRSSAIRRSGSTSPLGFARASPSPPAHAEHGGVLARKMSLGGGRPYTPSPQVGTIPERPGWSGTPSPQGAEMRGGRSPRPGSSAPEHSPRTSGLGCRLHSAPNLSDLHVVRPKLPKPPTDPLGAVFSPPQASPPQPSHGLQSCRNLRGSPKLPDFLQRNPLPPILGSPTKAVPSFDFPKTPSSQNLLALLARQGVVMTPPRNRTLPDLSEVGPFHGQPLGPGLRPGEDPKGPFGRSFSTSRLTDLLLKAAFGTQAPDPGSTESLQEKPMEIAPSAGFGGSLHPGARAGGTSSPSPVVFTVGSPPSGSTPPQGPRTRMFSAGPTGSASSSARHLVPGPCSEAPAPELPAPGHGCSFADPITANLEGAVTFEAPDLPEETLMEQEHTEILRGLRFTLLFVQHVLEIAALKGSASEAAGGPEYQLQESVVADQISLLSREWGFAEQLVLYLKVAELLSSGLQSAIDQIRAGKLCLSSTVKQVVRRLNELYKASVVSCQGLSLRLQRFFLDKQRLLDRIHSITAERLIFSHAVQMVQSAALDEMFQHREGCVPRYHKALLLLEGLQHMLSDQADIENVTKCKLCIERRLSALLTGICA
In short: as §1

[7] = target: BUB1 (UniProt O43683)
In short: as §1

Chain of EGFR (P00533 whole entry): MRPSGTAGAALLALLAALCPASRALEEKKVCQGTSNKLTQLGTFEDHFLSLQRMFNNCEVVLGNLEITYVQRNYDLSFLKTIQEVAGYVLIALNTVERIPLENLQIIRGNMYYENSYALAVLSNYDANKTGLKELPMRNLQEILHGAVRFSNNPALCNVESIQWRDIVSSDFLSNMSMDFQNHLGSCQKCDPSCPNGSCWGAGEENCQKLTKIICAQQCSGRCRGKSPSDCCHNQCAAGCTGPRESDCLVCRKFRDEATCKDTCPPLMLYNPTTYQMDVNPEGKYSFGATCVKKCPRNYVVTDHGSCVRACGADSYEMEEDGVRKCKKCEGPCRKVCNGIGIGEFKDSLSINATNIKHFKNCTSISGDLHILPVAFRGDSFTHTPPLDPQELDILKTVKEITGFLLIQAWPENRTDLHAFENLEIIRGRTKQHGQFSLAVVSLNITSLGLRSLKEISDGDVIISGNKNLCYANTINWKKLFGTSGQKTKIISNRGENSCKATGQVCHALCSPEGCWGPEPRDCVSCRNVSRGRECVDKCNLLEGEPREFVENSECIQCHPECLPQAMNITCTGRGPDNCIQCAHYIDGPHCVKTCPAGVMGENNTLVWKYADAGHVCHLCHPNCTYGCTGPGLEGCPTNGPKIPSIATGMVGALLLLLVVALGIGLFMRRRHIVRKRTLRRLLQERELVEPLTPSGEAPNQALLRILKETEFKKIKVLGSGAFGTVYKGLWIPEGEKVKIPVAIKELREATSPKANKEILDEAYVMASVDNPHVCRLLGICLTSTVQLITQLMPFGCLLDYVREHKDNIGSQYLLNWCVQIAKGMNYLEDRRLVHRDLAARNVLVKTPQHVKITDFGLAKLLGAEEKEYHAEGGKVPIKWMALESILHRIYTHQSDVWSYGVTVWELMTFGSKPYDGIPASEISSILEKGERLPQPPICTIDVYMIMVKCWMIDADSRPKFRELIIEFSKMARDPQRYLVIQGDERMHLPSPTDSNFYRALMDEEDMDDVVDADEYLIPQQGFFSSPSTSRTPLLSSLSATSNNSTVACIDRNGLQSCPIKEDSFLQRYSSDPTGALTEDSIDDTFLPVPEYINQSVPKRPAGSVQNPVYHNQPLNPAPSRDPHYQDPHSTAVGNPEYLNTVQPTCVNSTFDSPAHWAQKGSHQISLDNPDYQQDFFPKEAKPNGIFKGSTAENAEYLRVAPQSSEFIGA
Chain of UniProt O94804 (O94804 whole entry, looked up): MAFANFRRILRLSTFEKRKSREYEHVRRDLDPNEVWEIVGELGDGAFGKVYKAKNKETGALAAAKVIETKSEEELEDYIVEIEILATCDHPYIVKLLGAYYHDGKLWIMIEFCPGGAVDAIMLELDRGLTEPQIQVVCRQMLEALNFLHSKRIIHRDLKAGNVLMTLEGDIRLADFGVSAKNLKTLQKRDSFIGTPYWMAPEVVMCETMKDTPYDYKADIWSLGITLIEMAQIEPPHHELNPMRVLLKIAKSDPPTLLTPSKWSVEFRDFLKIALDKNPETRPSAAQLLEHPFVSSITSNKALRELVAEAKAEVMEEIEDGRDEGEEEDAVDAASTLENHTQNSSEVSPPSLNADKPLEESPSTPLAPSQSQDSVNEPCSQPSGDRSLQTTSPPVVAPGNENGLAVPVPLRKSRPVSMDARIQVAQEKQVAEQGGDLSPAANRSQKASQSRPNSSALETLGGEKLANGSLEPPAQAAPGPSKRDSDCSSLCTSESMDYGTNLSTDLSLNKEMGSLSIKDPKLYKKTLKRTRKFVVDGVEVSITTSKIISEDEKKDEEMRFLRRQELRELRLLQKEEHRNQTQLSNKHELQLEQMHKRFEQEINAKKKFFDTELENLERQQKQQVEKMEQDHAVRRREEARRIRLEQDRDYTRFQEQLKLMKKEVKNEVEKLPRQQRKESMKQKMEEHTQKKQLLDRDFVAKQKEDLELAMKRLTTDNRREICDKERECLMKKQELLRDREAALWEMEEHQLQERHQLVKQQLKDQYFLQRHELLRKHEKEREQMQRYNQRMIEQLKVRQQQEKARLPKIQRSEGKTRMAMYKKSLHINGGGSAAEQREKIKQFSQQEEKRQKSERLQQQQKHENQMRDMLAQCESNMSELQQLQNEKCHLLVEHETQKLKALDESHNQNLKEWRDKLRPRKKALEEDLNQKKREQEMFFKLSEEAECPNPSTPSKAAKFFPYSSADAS
Chain of BUB1 (O43683 whole entry, looked up): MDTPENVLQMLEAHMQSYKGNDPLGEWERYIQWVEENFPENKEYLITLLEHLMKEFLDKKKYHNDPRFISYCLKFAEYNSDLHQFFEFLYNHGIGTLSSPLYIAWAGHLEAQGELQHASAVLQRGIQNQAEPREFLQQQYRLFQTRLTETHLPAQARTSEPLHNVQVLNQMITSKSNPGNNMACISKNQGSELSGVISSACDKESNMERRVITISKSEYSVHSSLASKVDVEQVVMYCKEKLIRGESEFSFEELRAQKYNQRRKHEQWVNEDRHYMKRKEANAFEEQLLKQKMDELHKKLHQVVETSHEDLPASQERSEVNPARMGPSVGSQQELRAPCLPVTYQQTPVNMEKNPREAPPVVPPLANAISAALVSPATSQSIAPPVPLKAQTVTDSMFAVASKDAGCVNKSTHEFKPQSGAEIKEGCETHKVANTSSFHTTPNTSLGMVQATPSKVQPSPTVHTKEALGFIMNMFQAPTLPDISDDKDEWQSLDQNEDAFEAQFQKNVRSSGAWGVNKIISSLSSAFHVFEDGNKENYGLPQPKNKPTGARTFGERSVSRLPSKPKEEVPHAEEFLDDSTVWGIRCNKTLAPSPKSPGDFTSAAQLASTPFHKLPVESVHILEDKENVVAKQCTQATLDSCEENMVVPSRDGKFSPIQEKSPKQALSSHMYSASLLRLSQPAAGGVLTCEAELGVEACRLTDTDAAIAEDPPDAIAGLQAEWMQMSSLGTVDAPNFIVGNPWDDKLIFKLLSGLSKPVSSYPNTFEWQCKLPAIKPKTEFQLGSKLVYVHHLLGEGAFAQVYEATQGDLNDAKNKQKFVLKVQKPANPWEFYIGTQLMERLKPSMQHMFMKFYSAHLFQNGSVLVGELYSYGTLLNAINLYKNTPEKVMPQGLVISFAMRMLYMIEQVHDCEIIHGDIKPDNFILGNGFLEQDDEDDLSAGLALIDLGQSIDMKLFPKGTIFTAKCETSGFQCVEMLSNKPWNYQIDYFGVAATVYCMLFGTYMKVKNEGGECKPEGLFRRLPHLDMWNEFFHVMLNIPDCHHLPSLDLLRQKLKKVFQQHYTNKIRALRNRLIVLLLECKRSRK

| pIC50 ([1]; cell material: Lysate mix) | pIC50 ([2]; cell material: Lysate mix) | pIC50 ([3]; cell material: Lysate mix) | pIC50 ([4]; cell material: Lysate mix) | pIC50 [5] | pIC50 ([6]; cell material: Lysate mix) | pIC50 ([7]; cell material: Lysate mix) | SMILES | pIC50 ([1]; cell material: Jurkat cells) | pIC50 ([1]; cell material: Jurkat lysate) | pIC50 ([2]; cell material: Jurkat cells) | pIC50 ([2]; cell material: Jurkat lysate) | pIC50 ([3]; cell material: Jurkat cells) | pIC50 ([3]; cell material: Jurkat lysate) | pIC50 ([4]; cell material: Jurkat cells) | pIC50 ([4]; cell material: Jurkat lysate) | pIC50 ([6]; cell material: Jurkat lysate) | pIC50 ([7]; cell material: Jurkat cells) | pIC50 ([7]; cell material: Jurkat lysate) |
| --- | --- | --- | --- | --- | --- | --- | --- | --- | --- | --- | --- | --- | --- | --- | --- | --- | --- | --- |
| < 4.52 | < 4.52 | < 4.52 | 6.06 | 5.56 | < 4.52 | < 4.52 | C#CCNC(=O)c1cc(Nc2cc(C)[nH]n2)nc(N2CCN(Cc3ccc(S(=O)(=O)F)cc3)CC2)n1 |  |  |  |  |  |  |  |  |  |  |  |
| 5.08 | 5 | < 4.52 | 5.67 | 5.3 | 4.9 | < 4.52 | CCNC(=O)c1cc(Nc2cc(C3CC3)[nH]n2)nc(N2CCN(Cc3ccc(S(=O)(=O)F)cc3)CC2)n1 |  |  |  |  |  |  |  |  |  |  |  |
| < 4.52 | < 4.52 | < 4.52 | 5.98 | 5.78 | < 4.52 | < 4.52 | CCNC(=O)c1cc(Nc2cc(C)[nH]n2)nc(N2CCN(Cc3ccc(S(=O)(=O)F)cc3)CC2)n1 |  |  |  |  |  |  |  |  |  |  |  |

More lines, now with the values behind:

| SMILES | pIC50 ([1]; cell material: Lysate mix) | pIC50 ([2]; cell material: Lysate mix) | pIC50 ([3]; cell material: Lysate mix) | pIC50 ([4]; cell material: Lysate mix) | pIC50 [5] | pIC50 ([6]; cell material: Lysate mix) | pIC50 ([7]; cell material: Lysate mix) | pIC50 ([1]; cell material: Jurkat cells) | pIC50 ([1]; cell material: Jurkat lysate) | pIC50 ([2]; cell material: Jurkat cells) | pIC50 ([2]; cell material: Jurkat lysate) | pIC50 ([3]; cell material: Jurkat cells) | pIC50 ([3]; cell material: Jurkat lysate) | pIC50 ([4]; cell material: Jurkat cells) | pIC50 ([4]; cell material: Jurkat lysate) | pIC50 ([6]; cell material: Jurkat lysate) | pIC50 ([7]; cell material: Jurkat cells) | pIC50 ([7]; cell material: Jurkat lysate) |
| --- | --- | --- | --- | --- | --- | --- | --- | --- | --- | --- | --- | --- | --- | --- | --- | --- | --- | --- |
| C#CCNC(=O)c1cc(Nc2cc(C3CC3)[nH]n2)nc(N2CCN(Cc3ccc(S(=O)(=O)F)cc3)CC2)n1 | 5.16 | 5.26 | < 4.52 | 5.96 | 5.4 | 4.85 | < 4.52 | 5.8 | 4.72 | 5.76 | < 4.52 | 5.04 | < 4.52 | 6.6 | 5.65 | < 4.52 | 5 | < 4.52 |
| O=C(NCCNC(=O)c1cc(Nc2cc(C3CC3)[nH]n2)nc(N2CCN(Cc3ccc(S(=O)(=O)F)cc3)CC2)n1)OC1CC/C=C/CCC1 (centres undefined) | < 4.52 | < 4.52 | < 4.52 | 4.88 | < 4.52 | < 4.52 | < 4.52 | 4.88 | < 4.52 | 5.28 | < 4.52 | < 4.52 | < 4.52 | 6.44 | 4.92 | < 4.52 | < 4.52 | < 4.52 |
| Cc1cc(Nc2cc(C(=O)NCCNC(=O)OC3CC/C=C/CCC3)nc(N3CCN(Cc4ccc(S(=O)(=O)F)cc4)CC3)n2)n[nH]1 (centres undefined) | < 4.52 | < 4.52 | < 4.52 | 5.22 | < 4.52 | < 4.52 | < 4.52 |  |  |  |  |  |  |  |  |  |  |  |
